Data set [1] can be described thus: THC pharmacokinetics in wild-type and FABP1-KO mice (LC-MS/MS of brain and plasma). As to conditions: THC 10 mg/kg i.p.; for AUC: 0-24 h. Here is the method:
The pharmacokinetics of THC were subsequently examined to determine whether FABP1 regulates THC biotransformation in vivo. Wild-type and FABP1-KO mice were administered a single dose of THC (10 mg/kg, i.p.) and blood plasma and brains were harvested at several time points during a 24-hour time course (0, 0.5, 1, 2, 3, 4, 6, 7, and 24 hours post-THC). Levels of THC and its major primary and secondary metabolites (11-OH-THC and THC-COOH) were subsequently quantified by LC-MS/MS.
Mice were administered THC (10 mg/kg, i.p.) and plasma and brain samples were collected at the following time points: 0, 0.5, 1, 2, 3, 4, 6, 7, 24 hours. Tissues were immediately placed on dry ice and stored at −80 °C until processing. The AUC from time 0 to 24 h was calculated by the trapezoidal rule.
The tissues were rapidly thawed, spiked with 25 μl deuterated internal standard solution (containing THC-d3, 11-OH-THC-d3, and THC-COOH-d3; 5 ng/mL each, in methanol) (Cerillient Corporation, Round Rock, TX, USA) and homogenized on ice in Tris, pH 8.0. Protein precipitation was performed by adding two volumes ice-cold acetonitrile drop-wise while vortexing, centrifuged at 10,000 RCF for 10 minutes at 4 °C, and stored overnight at −20 °C to allow time for complete phase separation. The organic phase was transferred to a new glass tube and dried down under a steady stream of argon gas. The dried samples were resuspended in 100 μl 1:1 acetonitrile:ddH2O and submitted to the Stony Brook Proteomics Center for LC-MS/MS quantification of THC and THC metabolites.

Data set [2] addresses T1, human FABP1 (Homo sapiens, UniProt P07148).
T1 construct: His tag (N); host or cells: BL21(DE3) Escherichia coli
T1 sequence (P07148 1-127): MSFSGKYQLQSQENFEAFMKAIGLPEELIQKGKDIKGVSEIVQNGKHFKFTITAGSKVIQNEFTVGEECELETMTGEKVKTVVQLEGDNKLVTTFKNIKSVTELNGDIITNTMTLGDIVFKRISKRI
As to the kind of experiment: DAUDA fluorescence displacement binding assay. As to conditions: for maximal displacement of the fluorescent probe DAUDA: maximal effect in the tested concentration range. Here is the method: Human FABP1 in a pNIC28-Bsa4 vector was obtained from Addgene (plasmid #42344; Addgene, Cambridge, MA, USA). Following sequence verification the construct was transformed into BL21(DE3) Escherichia coli for expression. The recombinant FABP1 protein was purified by nickel-affinity chromatography as described previously. Residual endogenous bacterial lipids were stripped from the purified protein by incubation in a column of hydroxyalkoxypropyl-dextran (Sigma Chemical Co., St Louis, MO, USA) for 1 hour at 37 °C.
Binding assays were carried out in 96-well Costar® plates (Corning Life Science, Kennebunk, ME, USA). FABP1 (3 μM) was incubated with DAUDA (500 nM), in binding assay buffer (30 mM Tris-HCl, 100 mM NaCl, pH 7.6). Competitor test compounds (0.1–500 μM) were then introduced to the well, mixed, and the system was allowed to equilibrate for 20 minutes at 25 °C in the dark. All experimental conditions were tested in triplicate. […] Loss of fluorescence intensity was monitored with an F5 Filtermax Multi-Mode Microplate Reader (Molecular Devices, Sunnyvale, CA, USA) using excitation/emission wavelengths = 345/535 nm. Following background subtraction, raw fluorescence intensity values were normalized and fit to a one-site competition binding analysis using the Graphpad Prism software.

Data set [3] concerns the target T1, human FABP1. As to the kind of experiment: DAUDA probe saturation binding to FABP1 (probe Kd determination). As to conditions: FABP1 1 μM, DAUDA 0–16 μM. Here is the method:
Recombinant human FABP1 (1 μM) was titrated with DAUDA (0–16 μM). The raw fluorescence intensity at each data point was corrected by subtracting the signal from each respective probe concentration in the absence of protein. Kd and Bmax were then calculated by fitting the titration curve to the single-site saturation binding equation [Y = Bmax*X/(Kd + X)] using the GraphPad Prism software (Prism version 7.0 for Mac OS: Graphpad software Incorporated, La Jolla, CA, USA).

The test system of data set [4] is locomotor activity of wild-type and FABP1-KO mice. As to the kind of experiment: Home-cage spontaneous locomotor activity (photobeam system). Format: in vivo, mouse. As to conditions: THC 10 mg/kg i.p., 12 hour period, both sexes. Here is the method:
(§1) Hypothermia and spontaneous locomotor activity were assessed over a 12 hour period following a single intraperitoneal (i.p.) injection of 10 mg/kg THC or vehicle (1:1:18 DMSO:Cremophor-EL:saline) to naïve mice. This dose was selected because it produces submaximal cannabimimetic effects and potentiation of THC effects is unlikely to be hampered by a ceiling effect[33],[34]. All mice were kept on a 12/12 hour light/dark cycle and THC was administered immediately prior to the dark phase to control for circadian effects. […] Therefore, in the present study THC pharmacodynamics were independently assessed in mice of both genders.
Locomotor activity was measured by the home-cage photobeam activity system (San Diego Instruments, San Diego, CA, USA). In this system each mouse home-cage was surrounded by a 4 × 8 photobeam array that detected and recorded movements in the X and Y directions. The animals were first conditioned to the cages in the testing room for one week to avoid novelty induced changes in locomotor activity. THC or vehicle were injected 10 minutes prior to the onset of the dark cycle and motility data was recorded over the next 12 hour period.

For data set [5], the system named is body temperature of wild-type and FABP1-KO mice. As to the kind of experiment: THC-induced hypothermia (implanted iButton Thermocron core temperature). The note with it: THC 10 mg/kg i.p. Format: in vivo, mouse. The procedure: as §1
Mice were anesthetized with an i.p. injection of a surgical mixture of ketamine (100 mg/kg) and xylazine (10 mg/kg). Thermocron iButton® (Dallas Semiconductor Company, Dallas, TX, USA) temperature data loggers were sterilized with 70% ethanol and surgically implanted into the abdominal cavities. The mice were permitted to recover from surgery for at least one week prior to being subjected to any experiments. The factory calibrated thermocrons were programmed to record temperature measurements every three minutes with 0.5 °C accuracy and 0.0625 °C precision.

Setting [6] is: mouse, plasma, ip, 10 mg/kg, AUC, FABP1-KO mice.
Where [7] appears, read: mouse, plasma, ip, 10 mg/kg, AUC, wild-type mice.
Setting [8] is: mouse, plasma, ip, 10 mg/kg, Cmax, FABP1-KO mice.
Where [9] appears, read: mouse, plasma, ip, 10 mg/kg, Cmax, wild-type mice.

SMILES strings stand for the structures. Read-outs that look alike come from different tables or passages of the source.

A word on the Ki: it is the equilibrium dissociation constant of an inhibitor or competing ligand from its target. On to `CCCCCc1cc(O)c2c(c1)OC(C)(C)C1CCC(C(=O)O)=CC21` (stereo not shown) [THC-COOH, 11-nor-9-carboxy-Δ^9-tetrahydrocannabinol], for which the Cmax in data set [1] (brain, FABP1-KO mice) is 50.02 ± 3.16 pmol/g; in data set [1] (brain, wild-type mice), 58.33 ± 1.21 pmol/g; in data set [1] (setting [8]), 78.7 ± 2.26 ng/mL; in data set [1] (setting [9]), 87.1 ± 5.21 ng/mL. The “M/P: metabolite to parent (THC) ratio (AUCm/AUCp)” value amounted to 0.071 in data set [1] (brain, FABP1-KO mice); 0.251 in data set [1] (brain, wild-type mice); 0.0215 in data set [1] (plasma, FABP1-KO mice); 0.0440 in data set [1] (plasma, wild-type mice). Also, the AUC worked out at 522.6 ± 194.4 pmol·h/g in data set [1] (brain, FABP1-KO mice); 362.8 ± 36.94 pmol·h/g in data set [1] (brain, wild-type mice); 544 ± 21.2 ng·h/mL in data set [1] (setting [6]); 506 ± 51.4 ng·h/mL in data set [1] (setting [7]). Further, in data set [1] (brain), the “lower THC-COOH/THC ratio (AUCTHC-COOH/AUCTHC) in FABP1-KO brains vs WT” value was 3–4 fold. For the same molecule, in data set [1] (brain), the “∆tmax (later maximal level in FABP1-KO brain vs WT)” value stood at 4 h. The affinity at human FABP1 [2], expressed as Ki, was 11.2 ± 0.7 µM.

Take `CCCCCc1cc(O)c2c(c1)OC(C)(C)C1CCC(CO)=CC21` (stereo not shown) [11-OH-THC, 11-hydroxy-Δ^9-tetrahydrocannabinol]: in data set [1] (brain and plasma), the “time remaining at detectable levels longer in FABP1-KO than in wild-type” value was in the range of 1 to 2 h. Moreover, the Cmax in data set [1] (brain, FABP1-KO mice) was determined as 243.6 ± 114.3 pmol/g; in data set [1] (brain, wild-type mice), 484.4 ± 207.8 pmol/g; in data set [1] (setting [8]) it was 50.6 ± 11.8 ng/mL; in data set [1] (setting [9]), 29.5 ± 6.17 ng/mL. Besides, the “M/P: metabolite to parent (THC) ratio (AUCm/AUCp)” value in data set [1] (brain, FABP1-KO mice) was found to be 0.169; in data set [1] (brain, wild-type mice), 0.918; in data set [1] (plasma, FABP1-KO mice), 0.0044; in data set [1] (plasma, wild-type mice), 0.0052. In addition, the AUC in data set [1] (brain, FABP1-KO mice) stood at 1244 ± 314.6 pmol·h/g; in data set [1] (brain, wild-type mice), 1327 ± 329.3 pmol·h/g; in data set [1] (setting [6]), 112 ± 18.4 ng·h/mL; in data set [1] (setting [7]), 59.4 ± 14.6 ng·h/mL. Further, the affinity on human FABP1 [2], expressed as Ki, was 7.12 ± 0.79 µM.

By Kd is commonly meant a measure of binding affinity in units of concentration. Higher therefore signals a looser complex. At human FABP1 [3], `CN(C)c1cccc2c(S(=O)(=O)NCCCCCCCCCCC(=O)O)cccc12` [DAUDA, 11-(Dansylamino)unadecanoic acid] returned a Kd of 1.07 ± 0.17 µM.

Regarding `CCCCCCCCCCCCCCCC(=O)NCCO` [PEA, Palmitoylethanolamide], the “remaining DAUDA fluorescence” value at human FABP1 [2] (at 50 µM) stood at 101.8 ± 3.3 % fluorescence.

`C=C(C)[C@@H]1CCC(C)=C[C@H]1c1c(O)cc(CCCCC)cc1O` [CBD, cannabidiol]: the Ki on human FABP1 [2] (FABP1 3 μM, DAUDA 500 nM, 25 °C, 20 min, pH 7.6, read-out: Ki (DAUDA displacement from FABP1)) was found to be 3.95 ± 0.65 µM. Also, the “maximal displacement of the fluorescent probe DAUDA” value (“maximal displacement” for short) on human FABP1 [2] is ~50%.

With `CCCCCc1cc(O)c2c(c1)OC(C)(C)[C@@H]1CCC(C)=C[C@@H]21` [THC, ∆^9-tetrahydrocannabinol], the Cmax is 881.9 ± 574.1 pmol/g in data set [1] (brain, FABP1-KO mice); 531.0 ± 71.35 pmol/g in data set [1] (brain, wild-type mice); 34800 ± 2000 ng/mL in data set [1] (setting [8]); 13600 ± 2620 ng/mL in data set [1] (setting [9]). Also, the AUC in data set [1] (brain, FABP1-KO mice) stood at 7363 ± 949.0 pmol·h/g; in data set [1] (brain, wild-type mice), 1446 ± 411.7 pmol·h/g; in data set [1] (setting [6]), 25200 ± 7330 ng·h/mL; in data set [1] (setting [7]), 11500 ± 2080 ng·h/mL. In addition, the “increase in the brain AUC, FABP1-KO compared to WT” value in data set [1] (brain) is given as ~ 6 fold. For the same molecule, in data set [4], the “effect on spontaneous home-cage motility” value is recorded as “significant decrease in overall motility”. Further, on human FABP1 [2], the Ki was 2.93 ± 0.27 µM. Moreover, on human FABP1 [2], the “maximal displacement” value is given as ~50%. The “maximum mean body temperature change” value in data set [5] (FABP1-KO females) is −8.1 °C; in data set [5] (FABP1-KO males), −7.4 °C; in data set [5] (WT females), −4.8 °C; in data set [5] (WT males), −4.8 °C.

The molecule `CCCCCCCC/C=C\CCCCCCCC(=O)O` [oleic acid] showed a DAUDA displacement at human FABP1 [2] (at 10 µM) of 96.5 ± 0.15 % displacement.

Take `CCCCCCC(C)(C)c1cc(O)c2c(c1)OC(C)(C)[C@@H]1CC=C(C(=O)O)C[C@@H]21` [AJA, ajulemic acid]: at human FABP1 [2], the Ki amounted to 26 ± 3.8 µM and the “maximal displacement” value is reported as “fully displace DAUDA”.

These data come from publication PMC6527858, “FABP1 controls hepatic transport and biotransformation of Δ^9-THC” (Scientific Reports, 2019).
